Laboratory results reported in patent US6391614B1, “Auxiliary gene and protein of methicillin resistant bacteria and antagonists thereof” (priority 1995, dated 2002).
≈ marks a conversion by molar mass, not a printed value. Where two headings read alike, the source gives them in different places.

Experiments:
SWTD3 (RUSA315/pGCSW-3) [1] = assay: Standard disk susceptibility, transductant SWTD3; type: cell-based, Staphylococcus aureus; conditions: SWTD3 versus recipient RUSA315; FIG. 5
Procedure: (§1) Susceptibility testing and population analysis. One colony of bacterial strain was inoculated into 5 ml of TSB (tryptic soy broth, Difco Laboratories) and incubated at 37° C. with 200 rpm rotation for overnight. Culture density (OD600) was adjusted to give a viable titer of 10^8 to 10^9 cfu/ml. Sterile swabs were dipped into the bacterial suspension and applied to TSA (tryptic soy agar, Difco Laboratories) plates without antibiotics, and 6-mm-diameter disks containing antibiotics were applied to the plates with a disk dispenser (BBL, Beckton-Dickinson and Company). The antibiotics used were as follows: […] of methicillin, 10 U of penicillin, 30 μg of cefazolin, 20 μg of ampicillin/sulbactam, 15 μg of erythromycin, 10 μg of gentamicin, 30 μg of tetracycline, 30 μg chloramphenicol, 5 μg of rifampin, and 5 μg of ciproflaxin (BBL, Becton Dickinson and Company). Diameters of inhibition zones were read after incubation at 37° C. for 24 h. To perform population analysis, aliquots of overnight cultures were spread onto TSA plates containing increasing concentrations of methicillin. CFU were determined after 48 h of incubation at 37° C. [de Lencastre et al., Antimicrob Agents Chemother. 35:632-639 (1991)].
(§2) Complementation analysis with plasmid pGCSW-3. Plasmid pGCSW-3 was transformed into S. aureus RN4220 (r-) by electroporation and the electro-transformant SWET3 was used as donor to introduce pGCSW-3 into recipients RUSA315 and RUSA12F.

SWTD5 (RUSA12F/pGCSW-3) = assay: Standard disk susceptibility, transductant SWTD5; type: cell-based, Staphylococcus aureus; conditions: SWTD5 versus recipient RUSA12F; FIG. 5
Procedure: as §1, §2

[2] = test system: Tn551 insertional (auxiliary) mutants; assay: Methicillin MIC, Tn551 auxiliary mutants with intact mecA; type: cell-based; conditions: Staphylococcus aureus, read-out: methicillin MIC
[3] = test system: Tn551 insertional (auxiliary) mutants; conditions: cited from earlier work
MRSA strain COL [4] = assay: Methicillin MIC, parental highly methicillin resistant strain COL; type: cell-based, Staphylococcus aureus
Procedure: as §1

MRSA strain COL [5] = conditions: cited from earlier work
strain COL = conditions: peptidoglycan composition; cited from earlier work
[6] = test system: staphylococci without the mecA gene; conditions: bacteria without mecA; cited from earlier work
[7] = test system: mecA Tn551 transposon mutant; conditions: Tn551 inserted into mecA; cited from earlier work
[8] = test system: mutant RUSA315 (femR315::Tn551); assay: Methicillin MIC, Tn551 insertional mutant RUSA315; type: cell-based; conditions: Staphylococcus aureus
Procedure: as §1

four staphylococcal PBPs = conditions: in vitro; cited from earlier work
SWTD3 (RUSA315/pGCSW-3) [9] = assay: Population analysis on methicillin-containing TSA plates, SWTD3; type: cell-based, Staphylococcus aureus; conditions: SWTD3, data not shown
Procedure: as §1

In the case of “ampicillin/sulbactam [ampicillinisulbactam]”, the “antimicrobial susceptibility (disk, inhibition zone)” value (SWTD3 (RUSA315/pGCSW-3) [1]) is reported as “restored resistance” and the “antimicrobial susceptibility (disk, inhibition zone)” value (SWTD5 (RUSA12F/pGCSW-3)) is reported as “restored resistance”.
For `COc1cccc(OC)c1C(=O)N[C@@H]1C(=O)N2[C@@H]1SC(C)(C)[C@@H]2C(=O)O` [methicillin], the MIC [2] is given as 1.5 to 200 µg/mL (≈ 3.94 to 526 µM), the “methicillin MIC” value ([3]; Tn551 mutants still producing normal amounts of PBP2A) is given as 3 µg/mL and the MIC ([3]; inactivation of auxiliary genes, PBP2A present) is given as 3 mg methicillin per liter. For the same molecule, the “antimicrobial susceptibility (disk, inhibition zone)” value (SWTD3 (RUSA315/pGCSW-3) [1]) was “restored resistance”, the MIC (MRSA strain COL [4]; Staphylococcus aureus, MRSA, read-out: methicillin MIC) was 1600 µg/mL (≈ 4210 µM) and the “methicillin MIC” value (MRSA strain COL [4]; parental MRSA strain COL) was 1600 µg/mL. For the same molecule, the “methicillin MIC” value (MRSA strain COL [5]; highly resistant strain COL) was 1600 µg/mL, the MIC (MRSA strain COL [5]; parental bacterium before Tn551 inactivation) was 1600 µg/mL (≈ 4210 µM) and the “critical concentration at which a new cell wall synthetic machinery, presumably PBP2A, takes over” value (strain COL) was “about 5 mg/L”. The “methicillin MIC” value [6] was 1 to 2 µg/mL, the MIC [7] was “about 4 μg/ml” and the MIC [8] was 12 to 25 µg/mL (≈ 31.5 to 65.7 µM). For the same molecule, the MIC ([8]; RUSA315, Tn551 insert Ω720, read-out: methicillin MIC) was 1.5 µg/mL (≈ 3.94 µM), the “antimicrobial susceptibility (disk, inhibition zone)” value (SWTD5 (RUSA12F/pGCSW-3)) was “restored resistance” and the “methicillin concentration range within which all four normal PBPs become fully acylated” value (four staphylococcal PBPs) was 5 to 10 mg/L. For the same molecule, the “level of methicillin resistance by population analysis” value (SWTD3 (RUSA315/pGCSW-3) [9]) was “same level of methicillin resistance as the parental Mc^r strain COL”.
In the case of `Cc1nnc(SCC2=C(C(=O)O)N3C(=O)[C@@H](NC(=O)Cn4cnnn4)[C@H]3SC2)s1` [cefazoline, cefazolin], the “antimicrobial susceptibility (disk, inhibition zone)” value (SWTD3 (RUSA315/pGCSW-3) [1]) is reported as “restored resistance” and the “antimicrobial susceptibility (disk, inhibition zone)” value (SWTD5 (RUSA12F/pGCSW-3)) is reported as “restored resistance”.
With penicillin the “antimicrobial susceptibility (disk, inhibition zone)” value (SWTD3 (RUSA315/pGCSW-3) [1]) was “restored resistance” and the “antimicrobial susceptibility (disk, inhibition zone)” value (SWTD5 (RUSA12F/pGCSW-3)) was “restored resistance”.
